Columns and labels:
Assay in all cases: radiometric filter-binding kinase assay
CaMK1 (human) = CaMK1 (human) (UniProt Q14012); conditions: compound 100.0 µM; ATP 50 µM
[1] = system: PAK2 (human), Q13177 [T402E]; conditions: compound 100.0 µM; ATP 20 µM
CSK (human) = CSK (human) (UniProt P41240); conditions: compound 100.0 µM; ATP 20 µM
EPHA4 (human) = EPHA4 (human) (UniProt P54764); conditions: compound 100.0 µM; ATP 50 µM
PIM3 (human) = PIM3 (human) (UniProt Q86V86); conditions: compound 100.0 µM; ATP 20 µM
MARK2 (human) = MARK2 (human) (UniProt Q7KZI7); conditions: compound 100.0 µM; ATP 20 µM
MKNK2 (human) = MKNK2 (human) (UniProt Q9HBH9); conditions: compound 100.0 µM; ATP 50 µM
INSRR (human) = INSRR (human) (UniProt P14616); conditions: compound 100.0 µM; ATP 5 µM
LCK (mouse) = conditions: compound 100.0 µM; ATP 50 µM; accession and sequence are those of the human protein
PDPK1 (human) = PDPK1 (human) (UniProt O15530); conditions: compound 100.0 µM
MAP2K1 (human) = MAP2K1 (human) (UniProt Q02750); conditions: compound 100.0 µM; ATP 5 µM
MAP2K1 (human), sequence (Q02750 whole entry, looked up): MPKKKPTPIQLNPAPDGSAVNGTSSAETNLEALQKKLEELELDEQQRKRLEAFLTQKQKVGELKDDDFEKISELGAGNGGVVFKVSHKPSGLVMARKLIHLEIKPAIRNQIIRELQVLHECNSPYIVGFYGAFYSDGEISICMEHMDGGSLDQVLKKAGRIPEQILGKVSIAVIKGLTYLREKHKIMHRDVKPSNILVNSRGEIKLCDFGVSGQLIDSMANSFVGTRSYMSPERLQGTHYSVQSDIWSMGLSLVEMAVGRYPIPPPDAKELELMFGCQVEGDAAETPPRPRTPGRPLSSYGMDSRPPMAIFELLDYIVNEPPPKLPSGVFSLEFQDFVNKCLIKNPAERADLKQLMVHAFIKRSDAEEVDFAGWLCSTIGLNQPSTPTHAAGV

ABL1 (human) = ABL1 (human) (UniProt P00519); conditions: compound 100.0 µM; ATP 5 µM
HIPK2 (human) = HIPK2 (human) (UniProt Q9H2X6); conditions: compound 100.0 µM; ATP 5 µM
MAP3K5 (human) = MAP3K5 (human) (UniProt Q99683); conditions: compound 100.0 µM; ATP 50 µM
MAP3K7 TAB1 (human) = MAP3K7 TAB1 (human) (UniProt Q15750+O43318); conditions: compound 100.0 µM; ATP 5 µM
MAP3K7 TAB1 (human), sequence (O43318 whole entry, looked up): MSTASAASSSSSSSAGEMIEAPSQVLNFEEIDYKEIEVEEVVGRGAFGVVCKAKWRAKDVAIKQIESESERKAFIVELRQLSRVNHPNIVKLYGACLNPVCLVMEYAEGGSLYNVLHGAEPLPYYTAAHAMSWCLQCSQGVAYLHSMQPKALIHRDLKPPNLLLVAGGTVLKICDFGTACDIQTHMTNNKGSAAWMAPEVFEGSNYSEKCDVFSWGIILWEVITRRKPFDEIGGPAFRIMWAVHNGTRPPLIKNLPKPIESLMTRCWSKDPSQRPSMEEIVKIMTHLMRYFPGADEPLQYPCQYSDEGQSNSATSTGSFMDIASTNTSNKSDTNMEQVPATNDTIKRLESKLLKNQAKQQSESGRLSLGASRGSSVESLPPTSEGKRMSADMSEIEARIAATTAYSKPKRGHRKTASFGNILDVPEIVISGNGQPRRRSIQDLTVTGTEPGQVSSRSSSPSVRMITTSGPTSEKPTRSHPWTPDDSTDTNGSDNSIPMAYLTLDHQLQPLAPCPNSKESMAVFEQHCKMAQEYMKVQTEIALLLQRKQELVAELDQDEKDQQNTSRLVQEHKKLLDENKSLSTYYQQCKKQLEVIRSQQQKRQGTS
MAP3K7 TAB1 (human), sequence (Q15750 whole entry, looked up): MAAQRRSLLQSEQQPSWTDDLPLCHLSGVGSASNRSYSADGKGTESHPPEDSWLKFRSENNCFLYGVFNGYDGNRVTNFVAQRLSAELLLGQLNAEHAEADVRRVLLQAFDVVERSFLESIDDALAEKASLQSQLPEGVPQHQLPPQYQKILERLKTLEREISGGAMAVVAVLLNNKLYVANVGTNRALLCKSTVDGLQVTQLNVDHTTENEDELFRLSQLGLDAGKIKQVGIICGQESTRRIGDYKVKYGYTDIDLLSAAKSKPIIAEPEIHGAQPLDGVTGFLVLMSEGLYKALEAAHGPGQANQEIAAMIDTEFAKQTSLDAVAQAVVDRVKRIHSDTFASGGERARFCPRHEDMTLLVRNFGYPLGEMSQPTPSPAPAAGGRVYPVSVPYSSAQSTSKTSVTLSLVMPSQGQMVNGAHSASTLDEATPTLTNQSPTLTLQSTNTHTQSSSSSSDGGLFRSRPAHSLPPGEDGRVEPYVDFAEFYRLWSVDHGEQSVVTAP

MAP3K11 (human) = MAP3K11 (human) (UniProt Q16584); conditions: compound 100.0 µM; ATP 20 µM
MAPK1 (human) = MAPK1 (human) (UniProt P28482); conditions: compound 100.0 µM; ATP 20 µM
RIPK2 (human) = RIPK2 (human) (UniProt O43353); conditions: compound 100.0 µM; ATP 20 µM
BRSK1 (human) = BRSK1 (human) (UniProt Q8TDC3); conditions: compound 100.0 µM; ATP 20 µM
BRSK1 (human), sequence (Q8TDC3 whole entry, looked up): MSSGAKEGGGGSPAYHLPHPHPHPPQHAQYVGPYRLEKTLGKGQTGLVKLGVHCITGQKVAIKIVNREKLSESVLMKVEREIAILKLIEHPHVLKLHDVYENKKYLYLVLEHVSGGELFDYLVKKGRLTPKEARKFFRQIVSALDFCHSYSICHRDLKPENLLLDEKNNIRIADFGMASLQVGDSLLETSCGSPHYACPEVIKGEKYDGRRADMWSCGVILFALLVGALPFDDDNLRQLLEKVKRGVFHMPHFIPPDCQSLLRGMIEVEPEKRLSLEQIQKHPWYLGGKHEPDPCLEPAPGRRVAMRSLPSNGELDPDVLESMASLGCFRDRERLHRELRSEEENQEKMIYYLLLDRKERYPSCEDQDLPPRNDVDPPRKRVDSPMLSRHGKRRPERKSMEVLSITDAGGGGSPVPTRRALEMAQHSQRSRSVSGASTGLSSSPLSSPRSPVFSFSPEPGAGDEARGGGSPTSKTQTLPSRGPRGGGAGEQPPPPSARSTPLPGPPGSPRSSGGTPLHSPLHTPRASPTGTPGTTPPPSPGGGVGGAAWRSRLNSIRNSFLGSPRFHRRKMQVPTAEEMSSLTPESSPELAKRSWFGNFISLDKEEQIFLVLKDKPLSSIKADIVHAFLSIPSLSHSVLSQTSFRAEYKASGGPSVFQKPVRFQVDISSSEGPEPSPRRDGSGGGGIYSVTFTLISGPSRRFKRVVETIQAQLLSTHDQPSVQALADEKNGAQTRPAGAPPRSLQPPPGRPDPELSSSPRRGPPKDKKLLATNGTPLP

AURKA (human) = AURKA (human) (UniProt O14965); conditions: compound 100.0 µM; ATP 5 µM
CLK2 (human) = CLK2 (human) (UniProt P49760); conditions: compound 100.0 µM; ATP 5 µM
MAPK10 (human) = MAPK10 (human) (UniProt P53779); conditions: compound 100.0 µM; ATP 20 µM
MAPK10 (human), sequence (P53779 whole entry, looked up): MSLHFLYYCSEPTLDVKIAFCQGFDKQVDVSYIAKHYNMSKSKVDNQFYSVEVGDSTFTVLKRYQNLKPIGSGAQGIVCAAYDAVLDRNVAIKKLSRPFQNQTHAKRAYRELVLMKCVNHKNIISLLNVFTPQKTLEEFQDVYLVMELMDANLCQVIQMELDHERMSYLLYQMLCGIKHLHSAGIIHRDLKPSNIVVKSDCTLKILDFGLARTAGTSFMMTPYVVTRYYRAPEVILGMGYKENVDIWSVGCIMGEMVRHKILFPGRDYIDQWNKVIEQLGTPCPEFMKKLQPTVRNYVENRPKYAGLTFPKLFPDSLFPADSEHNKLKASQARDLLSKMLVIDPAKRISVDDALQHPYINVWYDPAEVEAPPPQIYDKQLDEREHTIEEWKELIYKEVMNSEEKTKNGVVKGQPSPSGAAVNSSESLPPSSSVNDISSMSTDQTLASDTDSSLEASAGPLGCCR

AURKB (human) = AURKB (human) (UniProt Q96GD4); conditions: compound 100.0 µM; ATP 20 µM
AURKB (human), sequence (Q96GD4 whole entry, looked up): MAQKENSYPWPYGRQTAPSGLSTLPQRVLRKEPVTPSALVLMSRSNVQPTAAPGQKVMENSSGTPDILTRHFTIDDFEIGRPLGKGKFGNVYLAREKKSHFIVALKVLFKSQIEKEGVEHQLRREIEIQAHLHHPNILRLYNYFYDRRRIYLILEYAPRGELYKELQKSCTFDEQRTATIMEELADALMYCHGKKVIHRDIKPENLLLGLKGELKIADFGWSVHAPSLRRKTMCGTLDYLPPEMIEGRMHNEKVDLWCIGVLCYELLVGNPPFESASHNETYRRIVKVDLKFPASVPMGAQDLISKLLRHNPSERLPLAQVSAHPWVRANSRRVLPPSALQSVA

CSNK2A1 (human) = CSNK2A1 (human) (UniProt P68400); conditions: compound 100.0 µM; ATP 5 µM
CSNK2A1 (human), sequence (P68400 whole entry, looked up): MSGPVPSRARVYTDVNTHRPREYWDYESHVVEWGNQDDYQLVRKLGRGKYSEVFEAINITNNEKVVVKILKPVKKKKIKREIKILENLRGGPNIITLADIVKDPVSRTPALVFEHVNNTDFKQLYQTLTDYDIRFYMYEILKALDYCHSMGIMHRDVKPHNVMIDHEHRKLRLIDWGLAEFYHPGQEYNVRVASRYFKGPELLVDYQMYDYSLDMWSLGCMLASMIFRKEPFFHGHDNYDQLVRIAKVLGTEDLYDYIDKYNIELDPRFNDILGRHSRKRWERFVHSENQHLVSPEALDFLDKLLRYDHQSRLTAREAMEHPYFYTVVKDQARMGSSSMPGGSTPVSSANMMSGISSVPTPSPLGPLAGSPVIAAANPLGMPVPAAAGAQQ

MARK1 (human) = MARK1 (human) (UniProt Q9P0L2); conditions: compound 100.0 µM; ATP 20 µM
[2] = system: RPS6KB1 (human), P23443 [T412E]; conditions: compound 100.0 µM; ATP 20 µM
RPS6KB1 (human), P23443 [T412E], sequence (P23443 whole entry T412E, looked up): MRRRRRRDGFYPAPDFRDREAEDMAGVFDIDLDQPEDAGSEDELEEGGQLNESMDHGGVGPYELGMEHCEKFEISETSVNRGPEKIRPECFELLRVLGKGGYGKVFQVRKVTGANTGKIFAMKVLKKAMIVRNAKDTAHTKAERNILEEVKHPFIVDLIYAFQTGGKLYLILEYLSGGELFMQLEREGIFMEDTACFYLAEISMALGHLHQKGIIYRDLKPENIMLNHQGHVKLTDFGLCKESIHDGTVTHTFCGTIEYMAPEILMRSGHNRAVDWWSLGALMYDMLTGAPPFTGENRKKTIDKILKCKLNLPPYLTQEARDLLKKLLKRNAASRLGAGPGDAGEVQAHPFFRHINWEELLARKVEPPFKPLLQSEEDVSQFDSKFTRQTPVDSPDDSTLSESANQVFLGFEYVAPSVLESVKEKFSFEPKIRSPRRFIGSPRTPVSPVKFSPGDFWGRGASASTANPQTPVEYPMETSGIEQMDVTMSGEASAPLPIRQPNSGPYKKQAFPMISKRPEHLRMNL

MAPKAPK5 (human) = MAPKAPK5 (human) (UniProt Q8IW41); conditions: compound 100.0 µM; ATP 20 µM
ZAP70 (human) = ZAP70 (human) (UniProt P43403); conditions: compound 100.0 µM; ATP 5 µM
IRAK4 (human) = IRAK4 (human) (UniProt Q9NWZ3); conditions: compound 100.0 µM; ATP 20 µM
EEF2K (human) = EEF2K (human) (UniProt O00418); conditions: compound 100.0 µM; ATP 5 µM
DAPK1 (human) = DAPK1 (human) (UniProt P53355); conditions: compound 100.0 µM; ATP 5 µM
PAK4 (human) = PAK4 (human) (UniProt O96013); conditions: compound 100.0 µM; ATP 5 µM
TAOK1 (human) = TAOK1 (human) (UniProt Q7L7X3); conditions: compound 100.0 µM; ATP 20 µM
MAPK8 (human) = MAPK8 (human) (UniProt P45983); conditions: compound 100.0 µM; ATP 20 µM
HIPK3 (human) = HIPK3 (human) (UniProt Q9H422); conditions: compound 100.0 µM; ATP 20 µM
MAPK3 (human) = MAPK3 (human) (UniProt P27361); conditions: compound 100.0 µM; ATP 5 µM
TTK (human) = TTK (human) (UniProt P33981); conditions: compound 100.0 µM; ATP 20 µM
ERBB4 (human) = ERBB4 (human) (UniProt Q15303); conditions: compound 100.0 µM; ATP 5 µM
RPS6KA1 KD1 KD2 (human) = RPS6KA1 KD1 KD2 (human) (UniProt Q15418); conditions: compound 100.0 µM; ATP 50 µM

CaMK1 (human), sequence (Q14012 whole entry, looked up): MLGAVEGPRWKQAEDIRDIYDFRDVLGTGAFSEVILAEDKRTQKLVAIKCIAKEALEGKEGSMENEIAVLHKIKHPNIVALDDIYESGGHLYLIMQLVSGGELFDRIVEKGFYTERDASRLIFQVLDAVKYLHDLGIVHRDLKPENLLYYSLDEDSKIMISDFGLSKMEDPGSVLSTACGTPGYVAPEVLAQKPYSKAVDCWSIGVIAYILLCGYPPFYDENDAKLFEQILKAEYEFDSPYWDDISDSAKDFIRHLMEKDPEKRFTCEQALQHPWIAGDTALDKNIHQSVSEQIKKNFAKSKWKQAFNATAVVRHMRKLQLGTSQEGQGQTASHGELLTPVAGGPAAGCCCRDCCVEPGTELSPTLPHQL
PAK2 (human), Q13177 [T402E], sequence (Q13177 whole entry T402E, looked up): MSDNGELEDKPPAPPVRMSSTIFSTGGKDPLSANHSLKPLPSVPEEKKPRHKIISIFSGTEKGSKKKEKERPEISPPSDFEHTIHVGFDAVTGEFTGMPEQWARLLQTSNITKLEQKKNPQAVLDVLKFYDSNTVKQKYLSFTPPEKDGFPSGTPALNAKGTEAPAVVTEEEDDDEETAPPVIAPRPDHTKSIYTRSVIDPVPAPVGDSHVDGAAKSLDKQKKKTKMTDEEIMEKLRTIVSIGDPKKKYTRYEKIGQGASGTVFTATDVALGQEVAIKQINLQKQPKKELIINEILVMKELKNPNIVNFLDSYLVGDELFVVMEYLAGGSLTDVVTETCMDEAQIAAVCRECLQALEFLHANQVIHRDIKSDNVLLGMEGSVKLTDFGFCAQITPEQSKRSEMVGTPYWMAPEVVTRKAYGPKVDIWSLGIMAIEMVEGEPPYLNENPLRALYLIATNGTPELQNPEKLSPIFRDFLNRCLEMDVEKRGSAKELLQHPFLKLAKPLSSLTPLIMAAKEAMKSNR

Compound	inhibition (CaMK1 (human))	inhibition [1]	inhibition (CSK (human))	inhibition (EPHA4 (human))	inhibition (PIM3 (human))	inhibition (MARK2 (human))	inhibition (MKNK2 (human))	inhibition (INSRR (human))	inhibition (LCK (mouse))	inhibition (PDPK1 (human); ATP 20 µM)	inhibition (PDPK1 (human); ATP 50 µM)	inhibition (MAP2K1 (human))	inhibition (ABL1 (human))	inhibition (HIPK2 (human))	inhibition (MAP3K5 (human))	inhibition (MAP3K7 TAB1 (human))	inhibition (MAP3K11 (human))	inhibition (MAPK1 (human))	inhibition (RIPK2 (human))	inhibition (BRSK1 (human))	other results
Nc1cnc2c(-c3c(F)cccc3F)cccn2c1=O	60%	41%	11%	25%	35%	53%	6%	51%	39%	20%	57%	72%	40%	18%	86%	80%	63%	13%	3%	22%	inhibition (AURKA (human)): 89%; inhibition (CLK2 (human)): 91%; inhibition (MAPK10 (human)): 33%; inhibition (AURKB (human)): 81%; inhibition (CSNK2A1 (human)): 94%; inhibition (MARK1 (human)): 49%; inhibition [2]: 0%; inhibition (MAPKAPK5 (human)): 83%; inhibition (ZAP70 (human)): 1%; inhibition (IRAK4 (human)): 31%; inhibition (EEF2K (human)): 16%; inhibition (DAPK1 (human)): 0%; inhibition (PAK4 (human)): 50%; inhibition (TAOK1 (human)): 82%; inhibition (MAPK8 (human)): 41%; inhibition (HIPK3 (human)): 23%; inhibition (MAPK3 (human)): 23%; inhibition (TTK (human)): 45%; inhibition (ERBB4 (human)): 65%; inhibition (RPS6KA1 KD1 KD2 (human)): 21%
O=c1cc(-c2ccccc2F)nc2[nH]ccn12	9%	0%	8%	16%	83%	0%	26%	6%	23%	2%	15%	43%	3%	61%	8%	37%	7%	8%	57%	44%	inhibition (AURKA (human)): 17%; inhibition (CLK2 (human)): 48%; inhibition (MAPK10 (human)): 0%; inhibition (AURKB (human)): 0%; inhibition (CSNK2A1 (human)): 20%; inhibition (MARK1 (human)): 5%; inhibition [2]: 8%; inhibition (MAPKAPK5 (human)): 13%; inhibition (ZAP70 (human)): 0%; inhibition (IRAK4 (human)): 40%; inhibition (EEF2K (human)): 7%; inhibition (DAPK1 (human)): 5%; inhibition (PAK4 (human)): 11%; inhibition (TAOK1 (human)): 3%; inhibition (MAPK8 (human)): 0%; inhibition (HIPK3 (human)): 0%; inhibition (MAPK3 (human)): 3%; inhibition (TTK (human)): 11%; inhibition (ERBB4 (human)): 48%; inhibition (RPS6KA1 KD1 KD2 (human)): 16%
COc1ccc(NC(=S)Nc2cnc3[nH]cnn3c2=O)cn1	0%	17%	20%	22%	0%	0%	0%	0%	0%	29%	10%	11%	5%	1%	16%	2%	0%	13%	0%	10%	inhibition (AURKA (human)): 23%; inhibition (CLK2 (human)): 1%; inhibition (MAPK10 (human)): 0%; inhibition (AURKB (human)): 0%; inhibition (CSNK2A1 (human)): 28%; inhibition (MARK1 (human)): 32%; inhibition [2]: 0%; inhibition (MAPKAPK5 (human)): 3%; inhibition (ZAP70 (human)): 23%; inhibition (IRAK4 (human)): 0%; inhibition (EEF2K (human)): 10%; inhibition (DAPK1 (human)): 5%; inhibition (PAK4 (human)): 15%; inhibition (TAOK1 (human)): 0%; inhibition (MAPK8 (human)): 2%; inhibition (HIPK3 (human)): 0%; inhibition (MAPK3 (human)): 0%; inhibition (TTK (human)): 0%; inhibition (ERBB4 (human)): 31%; inhibition (RPS6KA1 KD1 KD2 (human)): 19%

More lines, main results first:

inhibition (CaMK1 (human))	inhibition [1]	inhibition (CSK (human))	inhibition (EPHA4 (human))	inhibition (PIM3 (human))	inhibition (MARK2 (human))	inhibition (MKNK2 (human))	inhibition (INSRR (human))	inhibition (LCK (mouse))	inhibition (PDPK1 (human); ATP 20 µM)	inhibition (PDPK1 (human); ATP 50 µM)	inhibition (MAP2K1 (human))	inhibition (ABL1 (human))	inhibition (HIPK2 (human))	inhibition (MAP3K5 (human))	inhibition (MAP3K7 TAB1 (human))	inhibition (MAP3K11 (human))	inhibition (MAPK1 (human))	inhibition (RIPK2 (human))	inhibition (BRSK1 (human))	Compound	other results
6%	0%	8%	11%	0%	0%	10%	0%	18%	1%	0%	20%	3%	0%	9%	15%	0%	4%	0%	2%	O=C(Nc1cnc2[nH]cnn2c1=O)c1ccccc1	inhibition (AURKA (human)): 0%; inhibition (CLK2 (human)): 0%; inhibition (MAPK10 (human)): 0%; inhibition (AURKB (human)): 0%; inhibition (CSNK2A1 (human)): 0%; inhibition (MARK1 (human)): 0%; inhibition [2]: 0%; inhibition (MAPKAPK5 (human)): 0%; inhibition (ZAP70 (human)): 0%; inhibition (IRAK4 (human)): 0%; inhibition (EEF2K (human)): 6%; inhibition (DAPK1 (human)): 0%; inhibition (PAK4 (human)): 3%; inhibition (TAOK1 (human)): 0%; inhibition (MAPK8 (human)): 0%; inhibition (HIPK3 (human)): 0%; inhibition (MAPK3 (human)): 13%; inhibition (TTK (human)): 0%; inhibition (ERBB4 (human)): 21%; inhibition (RPS6KA1 KD1 KD2 (human)): 15%
11%	12%	23%	16%	0%	0%	25%	11%	23%	14%	4%	24%	4%	7%	0%	26%	40%	10%	16%	14%	O=C(Nc1cnc2[nH]ccn2c1=O)c1ccccc1	inhibition (AURKA (human)): 6%; inhibition (CLK2 (human)): 0%; inhibition (MAPK10 (human)): 0%; inhibition (AURKB (human)): 0%; inhibition (CSNK2A1 (human)): 11%; inhibition (MARK1 (human)): 16%; inhibition [2]: 4%; inhibition (MAPKAPK5 (human)): 17%; inhibition (ZAP70 (human)): 9%; inhibition (IRAK4 (human)): 19%; inhibition (EEF2K (human)): 11%; inhibition (DAPK1 (human)): 16%; inhibition (PAK4 (human)): 20%; inhibition (TAOK1 (human)): 0%; inhibition (MAPK8 (human)): 0%; inhibition (HIPK3 (human)): 0%; inhibition (MAPK3 (human)): 10%; inhibition (TTK (human)): 0%; inhibition (ERBB4 (human)): 25%; inhibition (RPS6KA1 KD1 KD2 (human)): 23%

Source: the kinase profiling compilation of Christmann-Franck et al. (2016)
